Laboratory results from US10640511B2, “Hepatitis B antiviral agents” (ENANTA PHARMACEUTICALS, INC., priority 2016, dated 2020).

Tested on: not listed separately
Assay: Compound toxicity, ATPLite total ATP levels
Format: cell-based
Settings: human, HepG2 cells, 50% reduction of total ATP levels (ATPLite) three days after compound addition, class symbols
Description: Compound toxicity is evaluated by seeding cells at 15,000 cells/well and treating with compound as described above.

Structure (SMILES) | CC50 at 3 days [nM]
Cn1ccc(C2=C3CC(NC(=O)OC(C)(C)C)CN3C(c3nccs3)=N[C@H]2c2ccc(F)cc2Cl)n1 (some centres unmarked) [Example 1] | < 10000
Cn1ccc(C2=C3CC(NS(=O)(=O)C4CC4)CN3C(c3nccs3)=N[C@H]2c2ccc(F)cc2Cl)n1 (some centres unmarked) [Example 2] | > 25000
[2H]C([2H])([2H])n1ccc(C2=C3C[C@H](NS(=O)(=O)C4CC4)CN3C(c3nccs3)=N[C@H]2c2ccc(F)cc2Cl)n1 [Example 17] | > 25000
Cc1cnc(C2=C3C[C@H](NS(=O)(=O)C4CC4)CN3C(c3nccs3)=N[C@H]2c2ccc(F)cc2Cl)o1 [Example 18] | > 25000
Cn1ccc(C2=C3C[C@H](NS(N)(=O)=O)CN3C(c3nccs3)=N[C@H]2c2ccc(F)cc2Cl)n1 [Example 20] | > 25000

Same assay, conditions: human, HepG2 cells, 50% reduction of total ATP levels (ATPLite) three days after compound addition, numeric bound

Structure (SMILES) | CC50 at 3 days [nM]
CCn1ccc(C2=C3C[C@H](NS(=O)(=O)C4CC4)CN3C(c3nccs3)=N[C@H]2c2ccc(F)cc2Cl)n1 [Example 22] | > 6000

Tested on: HBV
Assay: HepAD38 antiviral assay: reduction of viral product accumulation (virion DNA by qPCR; HBsAg/HBeAg ELISA)
Format: cell-based, hepatitis B virus (HBV)
Settings: Hepatitis B virus, 120 h; HepAD38 cells; 50% reduction of viral product accumulation relative to no drug controls; harvest five days after compound addition
Description: Methods: HepAD38 cells are maintained as previously reported (Ladner et al, Antimicrob. Agents Chemother. 1997, […], 1715). Briefly, cells are passaged upon attaining confluency in DMEM/F12 media in the presence of 10% FBS, Penn/Strep, 250 μg/mL G418, and 1 μg/ml tetracycline. Novel compounds are screened by first washing cells three times with PBS to remove tetracycline, and plating in 96 well plates at 35,000 cells/well. Compounds dissolved in DMSO are then diluted 1:200 into wells containing cells. Five days after compound addition, material is harvested for analysis. For an extended 8 day analysis, cells are plated and treated as described above, but media and compound are refreshed on d2 and d5 post initial treatment.
On harvest day, virion DNA is obtained by lysing with Sidestep Lysis and Stabilization Buffer and then quantified via quantitative real time PCR. Commercially available ELISA kits are used to quantitate the viral proteins HBsAg (Alpco) or HbeAg (US Biological) by following the manufacturer's recommended protocol after diluting samples to match the linear range of their respective assays. Irrespective of readout, compound concentrations that reduce viral product accumulation in the cell lysates or supernatants by 50% relative to no drug controls (EC50) are reported; EC50 ranges are as follows: A<0.1 μM; B 0.1-1 μM; C>1 μM.

Structure (SMILES) | EC50 [nM]
Cn1ccc(C2=C3CC(NC(=O)OC(C)(C)C)CN3C(c3nccs3)=N[C@H]2c2ccc(F)cc2Cl)n1 (some centres unmarked) [Example 1] | < 100
Cn1ccc(C2=C3CC(NS(=O)(=O)C4CC4)CN3C(c3nccs3)=N[C@H]2c2ccc(F)cc2Cl)n1 (some centres unmarked) [Example 2] | < 100
Cn1ccc(C2=C3C[C@H](NS(=O)(=O)C4CC4)CN3C(c3nccs3)=N[C@H]2c2ccc(F)cc2Cl)n1 [Example 3] | < 100
Cn1ccc(C2=C3C[C@H](NS(=O)(=O)C4CC4)CN3C(c3nccs3)=NC2(C)c2ccc(F)cc2)n1 (some centres unmarked) [Example 4] | < 100
Cn1ccc(C2=C3C[C@H](NS(=O)(=O)C4CC4)CN3C(c3nccs3)=N[C@@]2(C)c2ccc(F)cc2)n1 [Example 5] | < 100
Cn1ccc(C2=C3C[C@H](NS(C)(=O)=O)CN3C(c3nccs3)=N[C@H]2c2ccc(F)cc2Cl)n1 [Example 6] | < 100
CCS(=O)(=O)N[C@H]1CC2=C(c3ccn(C)n3)[C@H](c3ccc(F)cc3Cl)N=C(c3nccs3)N2C1 [Example 7] | < 100
CC(C)S(=O)(=O)N[C@H]1CC2=C(c3ccn(C)n3)[C@H](c3ccc(F)cc3Cl)N=C(c3nccs3)N2C1 [Example 8] | < 100
Cn1ccc(C2=C3C[C@H](NS(=O)(=O)Cc4ccccc4)CN3C(c3nccs3)=N[C@H]2c2ccc(F)cc2Cl)n1 [Example 9] | < 100
Cn1ccc(C2=C3C[C@H](NS(=O)(=O)C4(C)CC4)CN3C(c3nccs3)=N[C@H]2c2ccc(F)cc2Cl)n1 [Example 10] | < 100
Cn1ccc(C2=C3C[C@H](NS(=O)(=O)C4CCC4)CN3C(c3nccs3)=N[C@H]2c2ccc(F)cc2Cl)n1 [Example 11] | < 100
Cn1ccc(C2=C3C[C@H](NS(=O)(=O)C4CCCC4)CN3C(c3nccs3)=N[C@H]2c2ccc(F)cc2Cl)n1 [Example 12] | < 100
Cn1ccc(C2=C3C[C@H](NS(=O)(=O)C4CCCCC4)CN3C(c3nccs3)=N[C@H]2c2ccc(F)cc2Cl)n1 [Example 13] | < 100
Cn1ccc(C2=C3C[C@H](NS(=O)(=O)c4ccccc4)CN3C(c3nccs3)=N[C@H]2c2ccc(F)cc2Cl)n1 [Example 14] | < 100
O=S(=O)(N[C@H]1CC2=C(c3ncco3)[C@H](c3ccc(F)cc3Cl)N=C(c3nccs3)N2C1)C1CC1 [Example 15] | < 100
Cn1ccc(C2=C3C[C@H](NS(=O)(=O)C4CC4)CN3C(c3nccs3)=N[C@@]2(C)c2ccc(F)c(F)c2)n1 [Example 16] | < 100
[2H]C([2H])([2H])n1ccc(C2=C3C[C@H](NS(=O)(=O)C4CC4)CN3C(c3nccs3)=N[C@H]2c2ccc(F)cc2Cl)n1 [Example 17] | < 100
Cc1cnc(C2=C3C[C@H](NS(=O)(=O)C4CC4)CN3C(c3nccs3)=N[C@H]2c2ccc(F)cc2Cl)o1 [Example 18] | < 100
Cn1cc(C2=C3C[C@H](NS(=O)(=O)C4CC4)CN3C(c3nccs3)=N[C@H]2c2ccc(F)cc2Cl)cn1 [Example 19] | < 100
Cn1ccc(C2=C3C[C@H](NS(N)(=O)=O)CN3C(c3nccs3)=N[C@H]2c2ccc(F)cc2Cl)n1 [Example 20] | < 100
Cc1coc(C2=C3C[C@H](NS(=O)(=O)C4CC4)CN3C(c3nccs3)=N[C@H]2c2ccc(F)cc2Cl)n1 [Example 21] | < 100
CCn1ccc(C2=C3C[C@H](NS(=O)(=O)C4CC4)CN3C(c3nccs3)=N[C@H]2c2ccc(F)cc2Cl)n1 [Example 22] | < 100
O=S(=O)(N[C@H]1CC2=C(c3ccccn3)[C@H](c3ccc(F)cc3Cl)N=C(c3nccs3)N2C1)C1CC1 [Example 23] | 100 to 1000
